Reference: patent US20240335420A1, “N-ACYLHYDRAZONE COMPOUNDS CAPABLE OF INHIBITING NAV 1.7 AND/OR NAV 1.8, PROCESSES FOR THE PREPARATION THEREOF, COMPOSITIONS, USES, METHODS FOR TREATMENT USING SAME AND KITS” (EUROFARMA LABORATÓRIOS S.A., priority 2021, published 2024)

How the values were obtained:
[1] = biological target: human sodium channels Nav 1.8 (Homo sapiens (Human), UniProt Q9Y5Y9); test: Automated whole-cell voltage-clamp (ScreenPatch 384P), Nav 1.8 sodium current, Protocol 2; assay type: cell-based; conditions: Protocol 2 (holding −100 mV, inactivation step −40 mV 8 s, 0.05 Hz); CHO cells expressing human Nav 1.8; read-out: Nav1.8 IC50
Description: (§1) Biological assays were performed on Chinese hamster ovary (CHO) cells expressing the human sodium channels Nav 1.8 and Nav 1.7 stably.
(§2) The experimental voltage-clamp protocol using the whole cell configuration was established on the automated ScreenPatch® 384P platform (SP384PE, Nanion Technologies, Livingston, NJ) and recording of the results was performed with a Nanion 384-well Patch Clamp chip (NPC) (Nanion Technologies, Livingston, NJ).
(§3) Compounds of Formula (I), were diluted in eight concentrations in the extracellular solution composed of physiological saline, buffered with HEPES (mM): NaCl, 137; KCl, 4; CaCl2, 3.8; MgCl2, 1; HEPES, 10; Glucose, 10; pH 7.4. The […], 50; CsF, 90; MgCl2, 5; EGTA, 5; HEPES, 10; pH 7.2. The duration of exposure of each compound with the cells expressing Nav 1.7 or Nav 1.8 was at least five minutes and the assays were performed at room temperature.
(§4) The measurements of the sodium currents of Nav 1.8 and Nav 1.7 were obtained using the voltage protocols described below: • Protocol 1: A holding voltage of −90 mV was established followed by a voltage phase of 200 ms to −120 mV, followed by a voltage step of 10 mV for 1 second for Nav 1.8 or 0 mV for Nav 1.7, followed by a step of −100 mV for 20 ms, followed by a step of 20 ms for 10 mV for Nav 1.8 or 0 mV for Nav 1.7 (TP1A) before returning to the holding voltage of −90 mV. • Protocol 2: A holding voltage of −100 mV was established followed by an inactivation voltage step at −40 mV for 8 seconds, followed by a −100 mV step for […], followed by a 20 ms step for 10 mV for Nav 1.8 or 0 mV for Nav 1.7 (TP1A) before returning to the holding voltage of −100 mV.
(§5) Protocols were repeated at a frequency of 0.1 Hz (Protocol 1) or 0.05 Hz (Protocol 2) and current amplitude was quantified over the TP1A phase log. The variation in the peak amplitude of the current was evaluated according to the Formula described below, after exposure of the cells expressing the channels, at each concentration of the different compounds:
(§6) [formula] • where |TP1A, basal, and |TP1A, molecule represent the entry peaks of sodium currents into TP1A prior to exposure to the compound and in the presence of the compound, respectively.
(§7) The decrease in peak current amplitude, after exposure of the cells to the compounds, was used to calculate the percent relative blocking of the channels relative to the positive control according to the Formula below:
(§8) [formula] • where % V and % CP represent the averages of the values of current inhibition with a vehicle (DMSO) and positive controls, respectively. The sodium currents of the positive control were considered as 100%.
(§9) [formula] • where [Test] represents the concentration of the evaluated molecule, IC50 is the concentration of the compound that generates half of the maximum inhibition, N is the Hill's coefficient and % Block′ is the percentage of the sodium channel current (Nav 1.8 and Nav 1.7) inhibited at each concentration of the evaluated molecule. Data were obtained by non-linear least squares regression with XLfit for Excel (Microsoft, Redmond, WA).
(§10) Compounds were tested in at least one assay to obtain the IC50 value.

[2] = biological target: human sodium channels Nav 1.7 (Homo sapiens (Human), UniProt Q15858); test: Automated whole-cell voltage-clamp (ScreenPatch 384P), Nav 1.7 sodium current, Protocol 2; assay type: cell-based; conditions: Protocol 2 (holding −100 mV, inactivation step −40 mV 8 s, 0.05 Hz); CHO cells expressing human Nav 1.7; read-out: Nav1.7 IC50
Description: as §1, §2, §3, §4, §5, §6, §7, §8, §9, §10

human sodium channels Nav 1.7, sequence (Q15858 whole entry): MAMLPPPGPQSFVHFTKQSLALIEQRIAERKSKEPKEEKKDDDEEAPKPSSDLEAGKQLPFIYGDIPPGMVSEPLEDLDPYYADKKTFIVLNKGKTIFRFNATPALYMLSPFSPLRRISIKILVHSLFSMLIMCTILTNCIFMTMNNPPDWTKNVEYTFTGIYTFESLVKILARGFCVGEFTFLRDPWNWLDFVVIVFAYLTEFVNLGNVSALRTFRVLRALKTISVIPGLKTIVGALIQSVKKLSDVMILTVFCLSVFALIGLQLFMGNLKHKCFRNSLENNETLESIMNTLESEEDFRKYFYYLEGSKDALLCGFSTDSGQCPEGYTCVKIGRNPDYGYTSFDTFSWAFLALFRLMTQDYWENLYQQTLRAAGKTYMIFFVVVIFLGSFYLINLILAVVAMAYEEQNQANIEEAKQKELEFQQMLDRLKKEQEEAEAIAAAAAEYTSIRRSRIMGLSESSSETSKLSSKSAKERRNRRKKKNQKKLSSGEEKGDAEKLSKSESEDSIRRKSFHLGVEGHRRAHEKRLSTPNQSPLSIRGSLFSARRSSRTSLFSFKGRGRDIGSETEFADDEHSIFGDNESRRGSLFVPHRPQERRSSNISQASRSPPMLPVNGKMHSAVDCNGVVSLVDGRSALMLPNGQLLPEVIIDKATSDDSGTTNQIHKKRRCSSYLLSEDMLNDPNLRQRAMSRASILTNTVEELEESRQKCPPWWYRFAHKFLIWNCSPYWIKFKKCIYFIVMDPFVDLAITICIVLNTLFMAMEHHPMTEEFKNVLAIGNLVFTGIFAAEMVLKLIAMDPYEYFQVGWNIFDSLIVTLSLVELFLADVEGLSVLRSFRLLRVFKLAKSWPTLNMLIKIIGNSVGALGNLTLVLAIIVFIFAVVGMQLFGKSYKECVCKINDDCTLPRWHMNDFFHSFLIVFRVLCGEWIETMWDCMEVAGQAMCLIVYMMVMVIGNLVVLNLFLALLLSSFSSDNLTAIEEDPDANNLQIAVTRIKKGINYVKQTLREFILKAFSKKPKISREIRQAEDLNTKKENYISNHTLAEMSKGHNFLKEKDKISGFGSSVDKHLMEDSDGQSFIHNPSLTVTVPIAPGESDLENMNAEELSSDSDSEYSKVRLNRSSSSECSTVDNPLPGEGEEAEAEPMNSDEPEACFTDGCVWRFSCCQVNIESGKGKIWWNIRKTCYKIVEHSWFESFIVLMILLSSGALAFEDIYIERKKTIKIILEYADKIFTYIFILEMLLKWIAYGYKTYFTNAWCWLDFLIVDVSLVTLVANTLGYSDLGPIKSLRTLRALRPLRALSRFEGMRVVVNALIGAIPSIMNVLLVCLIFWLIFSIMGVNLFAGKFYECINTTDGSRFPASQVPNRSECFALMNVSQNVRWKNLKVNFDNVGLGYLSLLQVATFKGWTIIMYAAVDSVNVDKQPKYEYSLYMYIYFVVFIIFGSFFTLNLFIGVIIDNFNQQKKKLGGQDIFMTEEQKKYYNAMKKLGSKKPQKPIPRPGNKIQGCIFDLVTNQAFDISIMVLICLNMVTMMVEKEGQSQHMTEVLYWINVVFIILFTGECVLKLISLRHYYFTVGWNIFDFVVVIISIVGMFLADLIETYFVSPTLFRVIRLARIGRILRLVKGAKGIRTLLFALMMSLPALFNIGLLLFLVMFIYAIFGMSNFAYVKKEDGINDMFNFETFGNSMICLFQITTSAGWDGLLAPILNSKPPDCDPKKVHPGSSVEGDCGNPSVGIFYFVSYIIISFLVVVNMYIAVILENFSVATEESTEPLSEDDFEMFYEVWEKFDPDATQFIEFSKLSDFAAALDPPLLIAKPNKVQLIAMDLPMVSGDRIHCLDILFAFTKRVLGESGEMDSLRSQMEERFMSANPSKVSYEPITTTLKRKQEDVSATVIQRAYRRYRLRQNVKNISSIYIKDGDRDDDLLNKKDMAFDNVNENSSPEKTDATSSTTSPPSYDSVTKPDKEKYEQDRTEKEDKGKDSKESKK
human sodium channels Nav 1.8, sequence (Q9Y5Y9 whole entry): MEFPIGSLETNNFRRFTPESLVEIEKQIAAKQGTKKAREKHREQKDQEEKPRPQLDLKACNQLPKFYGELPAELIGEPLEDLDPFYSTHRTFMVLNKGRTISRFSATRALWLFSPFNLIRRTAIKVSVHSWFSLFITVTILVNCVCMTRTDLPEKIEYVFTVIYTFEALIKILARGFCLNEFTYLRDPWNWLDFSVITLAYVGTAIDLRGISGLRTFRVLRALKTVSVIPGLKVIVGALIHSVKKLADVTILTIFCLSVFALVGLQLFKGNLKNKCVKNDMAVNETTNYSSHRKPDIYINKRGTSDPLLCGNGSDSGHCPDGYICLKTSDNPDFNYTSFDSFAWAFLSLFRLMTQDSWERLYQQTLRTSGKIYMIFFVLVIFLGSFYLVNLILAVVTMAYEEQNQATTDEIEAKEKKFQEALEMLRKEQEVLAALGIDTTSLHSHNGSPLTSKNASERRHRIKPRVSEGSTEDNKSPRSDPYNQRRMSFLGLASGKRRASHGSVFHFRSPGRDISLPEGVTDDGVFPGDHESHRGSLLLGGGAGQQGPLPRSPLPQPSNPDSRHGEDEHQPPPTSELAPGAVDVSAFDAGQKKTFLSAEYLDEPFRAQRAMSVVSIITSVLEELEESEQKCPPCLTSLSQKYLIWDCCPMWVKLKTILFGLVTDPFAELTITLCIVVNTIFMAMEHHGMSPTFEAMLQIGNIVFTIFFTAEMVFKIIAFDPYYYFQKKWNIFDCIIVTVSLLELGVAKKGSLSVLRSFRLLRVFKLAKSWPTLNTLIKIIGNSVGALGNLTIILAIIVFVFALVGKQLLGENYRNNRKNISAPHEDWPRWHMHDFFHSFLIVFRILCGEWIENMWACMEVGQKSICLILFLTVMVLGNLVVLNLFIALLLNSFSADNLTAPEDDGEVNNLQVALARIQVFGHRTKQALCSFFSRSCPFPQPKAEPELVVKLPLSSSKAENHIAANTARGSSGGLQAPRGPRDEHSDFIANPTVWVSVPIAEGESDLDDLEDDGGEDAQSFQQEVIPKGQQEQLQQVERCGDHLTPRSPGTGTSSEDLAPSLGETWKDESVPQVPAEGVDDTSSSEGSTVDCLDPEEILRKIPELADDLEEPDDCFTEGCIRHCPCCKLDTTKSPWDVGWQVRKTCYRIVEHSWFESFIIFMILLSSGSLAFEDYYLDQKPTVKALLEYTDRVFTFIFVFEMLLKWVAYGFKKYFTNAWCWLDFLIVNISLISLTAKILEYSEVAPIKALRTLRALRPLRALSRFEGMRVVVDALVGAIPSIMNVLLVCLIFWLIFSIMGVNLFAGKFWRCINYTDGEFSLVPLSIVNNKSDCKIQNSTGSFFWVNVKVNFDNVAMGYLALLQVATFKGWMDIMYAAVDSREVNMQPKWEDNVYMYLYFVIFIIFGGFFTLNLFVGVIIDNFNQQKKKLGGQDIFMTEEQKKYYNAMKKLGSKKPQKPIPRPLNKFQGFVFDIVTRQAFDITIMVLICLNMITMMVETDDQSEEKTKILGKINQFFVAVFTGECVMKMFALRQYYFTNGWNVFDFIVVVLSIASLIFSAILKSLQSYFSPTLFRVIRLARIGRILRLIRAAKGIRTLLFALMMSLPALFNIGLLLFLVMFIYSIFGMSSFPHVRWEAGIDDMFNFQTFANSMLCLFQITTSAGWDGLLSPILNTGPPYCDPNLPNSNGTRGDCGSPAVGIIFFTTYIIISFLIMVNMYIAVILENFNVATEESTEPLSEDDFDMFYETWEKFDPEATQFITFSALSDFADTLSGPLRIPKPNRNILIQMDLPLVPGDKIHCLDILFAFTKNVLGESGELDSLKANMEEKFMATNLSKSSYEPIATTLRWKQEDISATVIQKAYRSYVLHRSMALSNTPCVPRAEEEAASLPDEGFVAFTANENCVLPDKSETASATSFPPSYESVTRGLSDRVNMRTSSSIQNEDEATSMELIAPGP

| IC50 [1] [µM] | IC50 [2] [µM] | SMILES |
| --- | --- | --- |
| > 1 | > 10 | COc1ccc(-c2ncc(C(=O)N/N=C/c3cc(OC)cc(OC)c3)o2)cc1 [Compound 73, (E)-N′-(3,5-dimethoxybenzylidene)-2-(4-methoxyphenyl) oxazole-5-carbohydrazide] |
| > 1 | > 10 | COc1ccc(-c2nc(C(=O)N/N=C/c3cc(OC)cc(OC)c3)co2)cc1 [Compound 74, (E)-N′-(3,5-dimethoxybenzylidene)-2-(4-methoxyphenol) oxazole-4-carbohydrazide] |
| > 1 | > 10 | COc1ccc(-c2noc(C(=O)N/N=C/c3cc(OC)cc(OC)c3)n2)cc1 [Compound 75, (E)-N′-(3,5-dimethoxybenzylidene)-3-(4-methoxyphenol)-1,2,4-oxadiazole-5-carbohydrazide] |
| > 1 | > 10 | COc1ccc(-c2nc(C(=O)N/N=C/c3cc(OC)cc(OC)c3)cs2)cc1 [Compound 76, (E)-N′-(3,5-dimethoxybenzylidene)-2-(4-methoxyphenyl) thiazole-4-carbohydrazide] |
